Measurements reported in article PMC9696085, “Fully Symmetric Cyclodextrin Polycarboxylates: How to Determine Reliable Protonation Constants from NMR Titration Data” (International Journal of Molecular Sciences, 2022).
Values joined by “and” are separate entries in the source; they are usually repeats but may differ in a detail not shown here. Equal values may be shown once. Read-outs that look alike come from different tables or passages of the source.

Tests used:
[1] = 1H NMR-pH titration, protonation constants; format: physicochemical; details: for pKa: H2O:D2O = 9:1 solvent mixture; for log k: site-binding model without any pair-interactivity parameters (unsatisfactory fit); for pε12 = averaged interactivity parameter pε¯: site-binding model with a single interactivity parameter; for log kA (carboxylate core microconstant): site-binding model with a single interactivity parameter pε12 (pε¯)
Protocol: The pH meter readings were recorded using a Metrohm pH meter, equipped with a Metrohm 6.0234.110 combined glass electrode. A four-point calibration using pH 2.00, pH 4.00, pH 7.00 and pH 11.00 standard buffer solutions were performed directly before pH adjustments. The pH measurements were performed in 25 mL vessels with proper stirring before transferring 600 μL sample solutions into the NMR tubes. Solutions were prepared in the pH range of 1.50–8.70 with 0.30 increments using 0.9 M, 0.5 M and 0.1 M sodium hydroxide and hydrochloric acid solutions in H2O:D2O = 9:1.
For structural characterizations of CD derivatives in D2O, a 600 MHz Varian DDR NMR spectrometer equipped with a 5 mm inverse-detection gradient probe or a 400 MHz Varian Mercury Plus spectrometer equipped with a 5mm Varian 400 Automation Triple Resonance Broadband Pulsed Field Gradient probe was used. For NMR-pH titrations, the same instruments were used. The pH-dependent series of ^1H NMR spectra were recorded in a solvent mixture of H2O:D2O = 9:1 by volume, where the constant ionic strength and the buffer capacity were adjusted using 0.05 M sodium chloride and 0.05 M acetic acid-d4. An appropriate amount of CD was weighed to obtain a 1 mM solution and finally one drop of methanol was added as a chemical shift reference (3.310 ppm). The water resonance was diminished by the dpfgse pulse sequence or presaturation. All the spectra were processed using the MestReNova v9.0.1-13254 (Mestralab Research, S.L., Santiago de Compostela, Spain) software.
The standard macroscopic evaluation of NMR-pH titration curves (Equation (3) in Section 2.2) was performed with the following software tools: Microcal Origin Pro 8 (OriginLab Corp., Northampton, MA, USA), HypNMR2018 [38], OPIUM [39] and home-written R scripts (R version 4.1.2, The R Foundation, Vienna, Austria) using the nls module. The equidistant macroscopic (Equation (8)) and Q-fitting (Equations (4) and (11)) models were fitted both by Origin and our R-scripts to verify their equivalent performance regarding statistical description of the parameter estimates. The microscopic cluster expansion model in Section 2.5 requires summation of >100 variables which is unfeasible in the form of an explicit model function required by commercial data-fitting software like Origin. The enumeration of microspecies was therefore accomplished in a custom-written R script. To assess the robustness of our data-fitting model as well as the error propagation of the optimized log k and pε parameters to the derived log K macroconstants, Monte Carlo simulations on >1000 replicates were performed in R.

[2] = design: method as in PMID 18613172; details: literature, cited from earlier work
[3] = ED macro or Q-fitting evaluation, ? = physically unrealistic, SD in parentheses
[4] = ED macro or Q-fitting evaluation, H2O:D2O = 9:1, 0.05 M NaCl, SD in parentheses
[5] = from ED macro or Q-fitting macroconstants by Eq. 18
[6] = from ED macro or Q-fitting macroconstants by Eq. 18, ? = physically unrealistic
[7] = site-binding (SB) microscopic evaluation
[8] = site-binding (SB) microscopic evaluation, converted from log kA and pε, errors by Monte Carlo
[9] = site-binding model with two interactivity parameters, standard deviation 138, overparametrized
[10] = converted from optimized microscopic basicity parameters (site-binding model)

O=C(O)CCSC[C@H]1O[C@@H]2O[C@H]3[C@H](O)[C@@H](O)[C@@H](O[C@H]4[C@H](O)[C@@H](O)[C@@H](O[C@H]5[C@H](O)[C@@H](O)[C@@H](O[C@H]6[C@H](O)[C@@H](O)[C@@H](O[C@H]7[C@H](O)[C@@H](O)[C@@H](O[C@H]1[C@H](O)[C@H]2O)O[C@@H]7CSCCC(=O)O)O[C@@H]6CSCCC(=O)O)O[C@@H]5CSCCC(=O)O)O[C@@H]4CSCCC(=O)O)O[C@@H]3CSCCC(=O)O [Suα-CD, sualphadex]
log K4 [1, 3]: 4.70 (0.14)
log K6 [1, 3]: 3.77 (0.07)
log K1 [1, 4]: 6.43 (0.07)
log K2 [1, 4]: 5.79 (0.09)
log K3 [1, 4]: 5.26 (0.11)
pKa ([1]; converted from optimized microscopic basicity parameters (site-binding model), read-out: macroscopic pKa, 1st of the set): 3.84
pKa ([1]; converted from optimized microscopic basicity parameters (site-binding model), read-out: macroscopic pKa, 2nd of the set): 4.35
pKa ([1]; converted from optimized microscopic basicity parameters (site-binding model), read-out: macroscopic pKa, 3rd of the set): 4.81
pKa ([1]; converted from optimized microscopic basicity parameters (site-binding model), read-out: macroscopic pKa, 4th of the set): 5.31
pKa ([1]; converted from optimized microscopic basicity parameters (site-binding model), read-out: macroscopic pKa, 5th of the set): 5.78
pKa ([1]; converted from optimized microscopic basicity parameters (site-binding model), read-out: macroscopic pKa, 6th of the set): 6.28
log k¯1 (averaged microconstant) [1, 5]: 5.65 (0.07)
log k¯2 (averaged microconstant) [1, 5]: 5.39 (0.09)
log k¯3 (averaged microconstant) [1, 5]: 5.13 (0.12)
log k¯6 (averaged microconstant) [1, 6]: 4.55 (0.07)
log k¯1 (averaged microconstant) [1, 7]: 5.51 (0.02)
log k¯2 (averaged microconstant) [1, 7]: 5.38 (0.02)
log k¯3 (averaged microconstant) [1, 7]: 5.18 (0.02)
log k¯4 (averaged microconstant) [1, 7]: 4.94 (0.02)
log k¯5 (averaged microconstant) [1, 7]: 4.75 (0.02)
log k¯6 (averaged microconstant) [1, 7]: 4.62 (0.02)
log K1 [1, 8]: 6.28 (0.02)
log K2 [1, 8]: 5.78 (0.02)
log K3 [1, 8]: 5.31 (0.02)
log K4 [1, 8]: 4.81 (0.02)
log K5 [1, 8]: 4.35 (0.02)
log K6 [1, 8]: 3.84 (0.02)
log kA ([1]; site-binding model with two interactivity parameters (pε12 and pε13), overparametrized): 5.63 (7)
pε12 [1, 9]: 0.28
pε13 [1, 9]: 0.28
log k [1]: 5.049

O=C(O)CCSC[C@H]1O[C@@H]2O[C@H]3[C@H](O)[C@@H](O)[C@@H](O[C@H]4[C@H](O)[C@@H](O)[C@@H](O[C@H]5[C@H](O)[C@@H](O)[C@@H](O[C@H]6[C@H](O)[C@@H](O)[C@@H](O[C@H]7[C@H](O)[C@@H](O)[C@@H](O[C@H]8[C@H](O)[C@@H](O)[C@@H](O[C@H]1[C@H](O)[C@H]2O)O[C@@H]8CSCCC(=O)O)O[C@@H]7CSCCC(=O)O)O[C@@H]6CSCCC(=O)O)O[C@@H]5CSCCC(=O)O)O[C@@H]4CSCCC(=O)O)O[C@@H]3CSCCC(=O)O [Suβ-CD, subetadex]
log K1 ([2]; potentiometric): 6.49 (1)
log K2 ([2]; potentiometric): 5.69 (1)
log K3 ([2]; potentiometric): 5.25 (1)
log K4 ([2]; potentiometric): 4.75 (1)
log K5 ([2]; potentiometric): 4.31 (1)
log K6 ([2]; potentiometric): 3.78 (1)
log K7 ([2]; potentiometric): <3
log kA [2]: 5.64
log K5 [1, 3]: 4.54 (0.06)
log K7 [1, 3]: 3.69 (0.03)
log K1 [1, 4]: 6.60 (0.03)
log K2 [1, 4]: 6.18 (0.04)
log K3 [1, 4]: 5.27 (0.08)
macroscopic pKa, 1st of the set [1, 10]: 3.82
macroscopic pKa, 2nd of the set [1, 10]: 4.31
macroscopic pKa, 3rd of the set [1, 10]: 4.73
macroscopic pKa, 4th of the set [1, 10]: 5.18
macroscopic pKa, 5th of the set [1, 10]: 5.64
macroscopic pKa, 6th of the set [1, 10]: 6.06
macroscopic pKa, 7th of the set [1, 10]: 6.54
log k¯1 (averaged microconstant) [1, 5]: 5.75 (0.03)
log k¯2 (averaged microconstant) [1, 5]: 5.71 (0.04)
log k¯3 (averaged microconstant) [1, 5]: 5.04 (0.08)
log k¯5 (averaged microconstant) [1, 6]: 4.76 (0.06)
log k¯7 (averaged microconstant) [1, 6]: 4.53 (0.03)
log k¯1 (averaged microconstant) [1, 7]: 5.70 (0.02)
log k¯2 (averaged microconstant) [1, 7]: 5.58 (0.02)
log k¯3 (averaged microconstant) [1, 7]: 5.42 (0.02)
log k¯4 (averaged microconstant) [1, 7]: 5.18 (0.01)
log k¯5 (averaged microconstant) [1, 7]: 4.95 (0.02)
log k¯6 (averaged microconstant) [1, 7]: 4.78 (0.02)
log k¯7 (averaged microconstant) [1, 7]: 4.67 (0.02)
log K1 [1, 8]: 6.54 (0.02)
log K2 [1, 8]: 6.06 (0.02)
log K3 [1, 8]: 5.64 (0.02)
log K4 [1, 8]: 5.18 (0.01)
log K5 [1, 8]: 4.73 (0.02)
log K6 [1, 8]: 4.31 (0.02)
log K7 [1, 8]: 3.82 (0.02)
pε12 = averaged interactivity parameter pε¯ [1]: 0.5144
log kA (carboxylate core microconstant) [1]: 5.697 and 5.70
log k [1]: 5.17

O=C(O)CCSC[C@H]1O[C@@H]2O[C@H]3[C@H](O)[C@@H](O)[C@@H](O[C@H]4[C@H](O)[C@@H](O)[C@@H](O[C@H]5[C@H](O)[C@@H](O)[C@@H](O[C@H]6[C@H](O)[C@@H](O)[C@@H](O[C@H]7[C@H](O)[C@@H](O)[C@@H](O[C@H]8[C@H](O)[C@@H](O)[C@@H](O[C@H]9[C@H](O)[C@@H](O)[C@@H](O[C@H]1[C@H](O)[C@H]2O)O[C@@H]9CO)O[C@@H]8CO)O[C@@H]7CO)O[C@@H]6CO)O[C@@H]5CO)O[C@@H]4CO)O[C@@H]3CO [mono-Suγ-CD, mono-sugammadex]
log K ([1]; standard macroscopic evaluation, Equation (3), n = 1): 4.35 (0.01)

O=C(O)CCSC[C@H]1O[C@@H]2O[C@H]3[C@H](O)[C@@H](O)[C@@H](O[C@H]4[C@H](O)[C@@H](O)[C@@H](O[C@H]5[C@H](O)[C@@H](O)[C@@H](O[C@H]6[C@H](O)[C@@H](O)[C@@H](O[C@H]7[C@H](O)[C@@H](O)[C@@H](O[C@H]8[C@H](O)[C@@H](O)[C@@H](O[C@H]9[C@H](O)[C@@H](O)[C@@H](O[C@H]1[C@H](O)[C@H]2O)O[C@@H]9CSCCC(=O)O)O[C@@H]8CSCCC(=O)O)O[C@@H]7CSCCC(=O)O)O[C@@H]6CSCCC(=O)O)O[C@@H]5CSCCC(=O)O)O[C@@H]4CSCCC(=O)O)O[C@@H]3CSCCC(=O)O [Suγ-CD, sugammadex, reference compound]
log K4 [1, 3]: 5.28 (0.22)
log K5 [1, 3]: 5.14 (0.22)
log K6 [1, 3]: 4.59 (0.17)
log K1 [1, 4]: 6.68 (0.08)
log K2 [1, 4]: 6.17 (0.12)
log K3 [1, 4]: 5.88 (0.16)
log K8 ([1]; ED macro or Q-fitting evaluation, SD in parentheses): 3.78 (0.07)
macroscopic pKa, 1st of the set [1, 10]: 3.83
macroscopic pKa, 2nd of the set [1, 10]: 4.28
macroscopic pKa, 3rd of the set [1, 10]: 4.65
macroscopic pKa, 4th of the set [1, 10]: 5.03
macroscopic pKa, 5th of the set [1, 10]: 5.43
macroscopic pKa, 6th of the set [1, 10]: 5.81
macroscopic pKa, 7th of the set [1, 10]: 6.18
macroscopic pKa, 8th of the set [1, 10]: 6.64
log k¯1 (averaged microconstant) [1, 5]: 5.77 (0.08)
log k¯2 (averaged microconstant) [1, 5]: 5.63 (0.12)
log k¯3 (averaged microconstant) [1, 5]: 5.58 (0.16)
log k¯8 (averaged microconstant) [1, 5]: 4.69 (0.07)
log k¯4 (averaged microconstant) [1, 6]: 5.18 (0.22)
log k¯5 (averaged microconstant) [1, 6]: 5.24 (0.22)
log k¯6 (averaged microconstant) [1, 6]: 4.89 (0.17)
log k¯1 (averaged microconstant) [1, 7]: 5.73 (0.02)
log k¯2 (averaged microconstant) [1, 7]: 5.64 (0.02)
log k¯3 (averaged microconstant) [1, 7]: 5.51 (0.02)
log k¯4 (averaged microconstant) [1, 7]: 5.33 (0.01)
log k¯5 (averaged microconstant) [1, 7]: 5.13 (0.01)
log k¯6 (averaged microconstant) [1, 7]: 4.95 (0.02)
log k¯7 (averaged microconstant) [1, 7]: 4.82 (0.02)
log k¯8 (averaged microconstant) [1, 7]: 4.73 (0.02)
log K1 [1, 8]: 6.64 (0.02)
log K2 [1, 8]: 6.18 (0.02)
log K3 [1, 8]: 5.81 (0.02)
log K4 [1, 8]: 5.43 (0.01)
log K5 [1, 8]: 5.03 (0.01)
log K6 [1, 8]: 4.65 (0.02)
log K7 [1, 8]: 4.28 (0.02)
log K8 [1, 8]: 3.83 (0.02)
pε12 = averaged interactivity parameter pε¯ [1]: 0.503
log kA (carboxylate core microconstant) [1]: 5.735 and 5.73
log k [1]: 5.22
